How the values were obtained:
Human U87MG Glioblastoma [1] = assay: In vivo evaluation of Compounds 3 and 45, alone and in combination with anti-HGF mAb HuL2G7, in human U87MG glioblastoma implanted nude mice (tumor growth delay method); conditions: for induction of regressions: monotherapy p.o. qd x 14; for tumor growth delays / tumor growth delays (% of median TTE of control): monotherapy p.o. qd x 14 (Table 4: Cmpd 45 136.05 mg/kg, Cmpd 3 200 mg/kg)
Experimental: B. In Vivo Evaluation of Compounds 3 and 45, Alone and in Combination with Anti-HGF mAb HuL2G7, in Human U87MG Glioblastoma Implanted Nude Mice
(§1) Female athymic nude mice (Harlan), 9 weeks of age, were fed ad libitum water (reverse osmosis, 1 ppm Cl2) and an irradiated standard rodent diet (NIH31 Modified and Irradiated) consisting of: 18% protein, 5% fat, and 5% fiber. Mice were housed on irradiated Enrich-O'Cobs™ laboratory animal bedding in static microisolators on a 12-hour light cycle at 21-22° C. (70-72° F.) and 40-60% humidity.
(§2) The human U87MG glioblastoma utilized in the present study was maintained in serial s.c. transplantation in nude mice. Mice were implanted subcutaneously in the flank with a 1 mm^3 fragment of U87MG glioblastoma. Tumors were monitored as the neoplasms reached the desired size, approximately 190 mm^3. At 12 days, when the tumors attained a size between 172-256 mm^3 in calculated tumor volume, the animals were pair-matched into various treatment groups (the mean tumor volume in each group was 190-198 mm^3). Estimated tumor volume was calculated using the formula:
(§3) where w=width and l=length in mm of a U87MG glioblastoma.
Compounds 3 and 45 were prepared by as described above. Compounds 3 and 45 were then prepared for administration as suspensions in 30% Captisol/100 mM citrate at pH 3.0. HuL2G7 was then provided as a 20.7 mg/ml stock solution in normal saline. The stock solution was diluted with normal saline to provide the formulation for injection.
(§4) The concentration of each compound was such that the desired dose was delivered in a volume of 5 μl per gram body weight. Dosing solutions of Compounds 3 and 45 were prepared fresh weekly and stored under refrigeration. Dosing solutions of HuL2G7 were prepared fresh prior to each treatment and were stored under refrigeration along with the stock solution.
On Day 1, animals were pairmatched by tumor size into 8 groups of 10 mice each. […] HuL2G7 was given i.v. at 10 mg/kg qwk×2. Treatment with all agents, either alone or in combination, was initiated on Day 1. Mice treated with monotherapy received the vehicle used for the other agent. There was a vehicle control group which received the Captisol/citrate, pH 3.0 vehicle p.o. qd×14 as well as saline i.v. qwk×2. Treatment groups were compared for statistical significance to the vehicle control. Groups that received the combinations were compared for statistical significance to the monotherapy groups that received the two agents used in combination. The experiment was terminated on Day 43.
(§5) The tumor growth delay (TGD) method was used in this study; treatment-effected median increases in time to endpoint (TTE) of various treatment groups were compared to untreated and vehicle controls. In the TGD method, each animal was euthanized as a cancer death when its U87MG glioblastoma reached a size of 2000 mm^3. TTE values were determined for all groups based on the calculated day reaching endpoint as given by the formula: […]
(§6) where TTE is expressed in days, endpoint volume is in mm^3, b is the intercept, and m is the slope of the line obtained by linear regression of a log-transformed tumor growth data set. The data set is comprised of the first observation that exceeded the study endpoint volume and the three consecutive observations that immediately preceded the attainment of the endpoint volume. The calculated TTE is usually less than the day on which an animal is euthanized for tumor size. […] Animals classified as treatment related deaths (TR) or non-treatment-related metastatic deaths (NTRm) are assigned a TTE value equal to the day of death. Animals classified as non-treatment-related deaths (NTRu or NTRa) are excluded from TTE calculations.
Treatment efficacy was determined from tumor growth delay (TGD), which is defined as the increase in the median TTE for a treatment group compared to the control group:
expressed in days, or as a percentage of the median TTE of the control group: […]

Human U87MG Glioblastoma [2] = assay: In vivo evaluation of Compound 45, alone and in combination with anti-HGF mAb HuL2G7, in human U87MG glioblastoma implanted nude mice (tumor growth delay method)
Experimental: A. In Vivo Evaluation of Compound 45, Alone and in Combination with Anti-HGF mAb HuL2G7, in Human U87MG Glioblastoma Implanted Nude Mice
as §1, with “10” for “9”, “[…])” for “Cl2)”, “Enrich-o′-Cobs™” for “Enrich-O'Cobs™”
as §2, with “glioblastoma” for “glioblastoma utilized in the present study”, “monitored twice weekly then subsequently daily” for “monitored”, “13” for “12”, “126-288” for “172-256”, “184-192” for “190-198”
as §3
Compound 45 was produced as described above. Compound 45 was then prepared for administration in 30% Captisol/25 mM citrate at pH 3.0. HuL2G7 was then provided as a 19.0 mg/ml stock solution in normal saline. The stock solution was diluted with normal saline to provide the formulation for injection.
as §4, with “Compound” for “Compounds 3 and”, “at room temperature.” for “under refrigeration.”
On Day 1, animals were pairmatched by tumor size into 16 groups of 10 mice each. Compound 45 was given p.o. at 10.8, 32.4 and 108 mg/kg qd×14. HuL2G7 was given i.v. at 1, 3 and 10 mg/kg qwk×2. Treatment with both agents either alone or in combination was initiated on Day 1. Mice treated with monotherapy received the vehicle used for the other agent. There was a vehicle control group which received the Captisol/citrate, pH 3.0 vehicle p.o. qd×14 as well as saline i.v. qwk×2. Treatment groups were compared for statistical significance to the vehicle control. Groups that received the combination were compared for statistical significance to the monotherapy groups that received the same dose of the two agents used in combination. The experiment was terminated on Day 44.
as §5
as §6, with “calculations. Treatment efficacy was determined from tumor growth delay (TGD), which is defined as the increase in the median TTE for a treatment group compared to the control group: […]” for “calculations.”

[3] = monotherapy, text summary over doses (Compound 45 daily for 14 days; HuL2G7 i.v. qwk x 2)
[4] = monotherapy: Compound 45 10.8 mg/kg p.o. qd x 14 (HuL2G7 0)
[5] = monotherapy: Compound 45 32.4 mg/kg p.o. qd x 14 (HuL2G7 0)
[6] = monotherapy: Compound 45 108 mg/kg p.o. qd x 14 (HuL2G7 0)

| melting point [°C] | SMILES | induction of regressions (Human U87MG Glioblastoma [1]) | tumor growth delays (Human U87MG Glioblastoma [1]) [days] | tumor growth delays (% of median TTE of control) (Human U87MG Glioblastoma [1]) | induction of regressions (Human U87MG Glioblastoma [2]; monotherapy) | tumor growth delays (Human U87MG Glioblastoma [2]; [3]) [days] | tumor growth delays (% of median TTE of control) (Human U87MG Glioblastoma [2]; [3]) | Regressions (CR/PR per 10 mice) (Human U87MG Glioblastoma [2]; [4]) | Tumor Growth Delay (TGD) (Human U87MG Glioblastoma [2]; [4]) [days] | Regressions (CR/PR per 10 mice) (Human U87MG Glioblastoma [2]; [5]) | Tumor Growth Delay (TGD) (Human U87MG Glioblastoma [2]; [5]) [days] | Regressions (CR/PR per 10 mice) (Human U87MG Glioblastoma [2]; [6]) | Tumor Growth Delay (TGD) (Human U87MG Glioblastoma [2]; [6]) [days] |
| --- | --- | --- | --- | --- | --- | --- | --- | --- | --- | --- | --- | --- | --- |
|  | O=C(Nc1cn2nc(Sc3nnc4ccccn34)ccc2n1)C1CC1 [Compound 3, N-(6-([1,2,4]triazolo[4,3-a]pyridin-3-ylthio)imidazo[1,2-b]pyridazin-2-yl)cyclopropanecarboxamide] | Neither of these agents was able to induce regressions | 3 | ca. 23% |  |  |  |  |  |  |  |  |  |
| 250.2 to 251.6 | Cn1cc(-c2ccc3nnn(Cc4ccc5nc(NC(=O)C6CC6)cn5n4)c3c2)cn1 [Compound 13, N-(6-((6-(1-methyl-1H-pyrazol-4-yl)-1H-benzo[d][1,2,3]triazol-1-yl)methyl)imidazo[1,2-b]pyridazin-2-yl)cyclopropanecarboxamide] |  |  |  |  |  |  |  |  |  |  |  |  |
|  | Cn1cc(-c2ccc3nnc(C(F)(F)c4ccc5nc(NC(=O)C6CC6)cn5n4)n3c2)cn1 [Compound 45, N-(6-(difluoro(6-(1-methyl-1H-pyrazol-4-yl)-[1,2,4]triazolo[4,3-a]pyridin-3-yl)methyl)imidazo[1,2-b]pyridazin-2-yl)cyclopropanecarboxamide] | Neither of these agents was able to induce regressions | 3 | ca. 23% | Neither agent was able to induce regressions | 3 to 4 | ca. 30% | 0/10 | 0 | 0/10 | 3.9 | 0/10 | 3.1 |

From patent US20130315895A1, “COMBINATION OF A cMET INHIBITOR AND AN ANTIBODY TO HGF AND/OR cMET” (priority 2010, published 2013)
